This note sets out measurements from patent US11807644B2 (PMV Pharmaceuticals, Inc., priority 2020, dated 2023).

For one assay, the target named is T1, recombinant His-tag Y220C p53 DBD protein (Homo sapiens, UniProt P04637, Y220C).
T1 construct: recombinant His-tag Y220C p53 DBD protein (amino acids #˜94-312)
In words: In vitro DNA binding activity assay (TR-FRET): binding of His-tag Y220C p53 DBD to biotin-labeled consensus DNA. The conditions noted are these: SC150 = concentration to increase DNA binding by […], His-tag Y220C p53 DBD, biotin-labeled consensus DNA. The class given is biochemical.
Consider `CC(C)NC[C@@H]1C[C@H]1C(=O)NCc1nc(-c2cc3c(N[C@@H]4CCN(C)C[C@@H]4F)cccc3n2CC(F)(F)F)no1` [Compound 246B, (1R,2R)-N-{[3-(4-{[(3S,4R)-3-fluoro-1-methylpiperidin-4-yl]amino}-1-(2,2,2-trifluoroethyl)-1H-indol-2-yl)-1,2,4-oxadiazol-5-yl]methyl}-2-{[(propan-2-yl)amino]methyl}cyclopropane-1-carboxamide], for which the “Y220C SC150 (μM)” value is reported as “* (* = 0 μM ≤ SC150 < 0.1 μM)”.
Regarding `COC(C)(C)c1cc(C(=O)NCc2nc(-c3cc4c(N[C@H]5CCNC[C@H]5F)cccc4n3CC(F)(F)F)no2)cs1` [Compound 490B, N-{[3-(4-{[(3R,4S)-3-fluoropiperidin-4-yl]amino}-1-(2,2,2-trifluoroethyl)-1H-indol-2-yl)-1,2,4-oxadiazol-5-yl]methyl}-5-(2-methoxypropan-2-yl)thiophene-3-carboxamide], the “Y220C SC150 (μM)” value is “* (* = 0 μM ≤ SC150 < 0.1 μM)”.
For `COCC1(n2ccc(C(=O)NCc3nc(-c4cc5c(N[C@@H]6CCN(C)C[C@@H]6F)cccc5n4CC(F)(F)F)no3)c2)CCC1` [Compound 471B], the “Y220C SC150 (μM)” value is “* (* = 0 μM ≤ SC150 < 0.1 μM)”.
Take `CN1CC[C@@H](Nc2cccc3c2cc(-c2noc(CNC(=O)c4ccn(C(C)(C)C)c4)n2)n3CC(F)(F)F)[C@@H](F)C1` (racemic) [Compound 184B, (+/−)-tert-butyl-N-{[3-(4-{[(3R,4S)-3-fluoro-1-methylpiperidin-4-yl]amino}-1-(2,2,2-trifluoroethyl)-1H-indol-2-yl)-1,2,4-oxadiazol-5-yl]methyl}-1H-pyrrole-3-carboxamide]: the “Y220C SC150 (μM)” value was “* (* = 0 μM ≤ SC150 < 0.1 μM)”.
With `CN1CC[C@@H](Nc2cccc3c2cc(-c2noc(CNC(=O)c4ccn(C5CCC(N(C)C)C5)c4)n2)n3CC(F)(F)F)[C@@H](F)C1` (stereo in doubt) [Compound 361B, 1-[(1R,3R)-3-(dimethylamino)cyclopentyl]-N-{[3-(4-{[(3S,4R)-3-fluoro-1-methylpiperidin-4-yl]amino}-1-(2,2,2-trifluoroethyl)-1H-indol-2-yl)-1,2,4-oxadiazol-5-yl]methyl}-1H-pyrrole-3-carboxamide], the “Y220C SC150 (μM)” value is given as “* (* = 0 μM ≤ SC150 < 0.1 μM)”.
As for `Cc1sccc1C(=O)NCc1nc(-c2cc3c(N[C@@H]4CCN(C)C[C@@H]4F)cccc3n2CC(F)(F)F)no1` [Compound 211B, N-{[3-(4-{[(3S,4R)-3-fluoro-1-methylpiperidin-4-yl]amino}-1-(2,2,2-trifluoroethyl)-1H-indol-2-yl)-1,2,4-oxadiazol-5-yl]methyl}-2-methylthiophene-3-carboxamide], the “Y220C SC150 (μM)” value is “* (* = 0 μM ≤ SC150 < 0.1 μM)”.
For the compound `CN1CC[C@@H](Nc2cccc3c2cc(-c2noc(CNC(=O)[C@@H]4CC4(C)C)n2)n3CC(F)(F)F)[C@@H](F)C1` [Compound 239B, (1R)-N-{[3-(4-{[(3S,4R)-3-fluoro-1-methylpiperidin-4-yl]amino}-1-(2,2,2-trifluoroethyl)-1H-indol-2-yl)-1,2,4-oxadiazol-5-yl]methyl}-2,2-dimethylcyclopropane-1-carboxamide], the “Y220C SC150 (μM)” value is given as “* (* = 0 μM ≤ SC150 < 0.1 μM)”.
On the same count and under the same terms, the entry for `CC(C)c1nc(C(=O)NCc2nc(-c3cc4c(N[C@@H]5CCN(C)C[C@@H]5F)cccc4n3CC(F)(F)F)no2)co1` [Compound 430B, N-{[3-(4-{[(3S,4R)-3-fluoro-1-methylpiperidin-4-yl]amino}-1-(2,2,2-trifluoroethyl)-1H-indol-2-yl)-1,2,4-oxadiazol-5-yl]methyl}-2-(propan-2-yl)-1,3-oxazole-4-carboxamide] is “* (* = 0 μM ≤ SC150 < 0.1 μM)”; for `CN1CC[C@@H](Nc2cccc3c2cc(-c2noc(CNC(=O)c4ccsc4)n2)n3CC(F)(F)F)[C@@H](F)C1` (racemic) [Compound 176B, (+/−)-N-{[3-(4-{[(3R,4S)-3-fluoro-1-methylpiperidin-4-yl]amino}-1-(2,2,2-trifluoroethyl)-1H-indol-2-yl)-1,2,4-oxadiazol-5-yl]methyl}thiophene-3-carboxamide] it is “* (* = 0 μM ≤ SC150 < 0.1 μM)”; for `CC(CO)n1ccc(C(=O)NCc2nc(-c3cc4c(N[C@@H]5CCN(C)C[C@@H]5F)cccc4n3CC(F)(F)F)no2)c1` (stereo partly drawn) [Compound 237B, N-{[3-(4-{[(3S,4R)-3-fluoro-1-methylpiperidin-4-yl]amino}-1-(2,2,2-trifluoroethyl)-1H-indol-2-yl)-1,2,4-oxadiazol-5-yl]methyl}-1-(1-hydroxypropan-2-yl)-1H-pyrrole-3-carboxamide] it is “* (* = 0 μM ≤ SC150 < 0.1 μM)”.
In the case of `CN1CC[C@@H](Nc2cccc3c2cc(-c2noc(CNC(=O)c4ccn(C5(C)CCOCC5)c4)n2)n3CC(F)(F)F)[C@@H](F)C1` [Compound 371B, N-{[3-(4-{[(3S,4R)-3-fluoro-1-methylpiperidin-4-yl]amino}-1-(2,2,2-trifluoroethyl)-1H-indol-2-yl)-1,2,4-oxadiazol-5-yl]methyl}-1-(4-methyloxan-4-yl)-1H-pyrrole-3-carboxamide], the “Y220C SC150 (μM)” value was “* (* = 0 μM ≤ SC150 < 0.1 μM)”.
As for `CN1CC[C@@H](Nc2cccc3c2cc(-c2noc(CNC(=O)c4ccn(CCO)c4)n2)n3CC(F)(F)F)[C@@H](F)C1` [Compound 249B, N-{[3-(4-{[(3S,4R)-3-fluoro-1-methylpiperidin-4-yl]amino}-1-(2,2,2-trifluoroethyl)-1H-indol-2-yl)-1,2,4-oxadiazol-5-yl]methyl}-1-(2-hydroxyethyl)-1H-pyrrole-3-carboxamide], the “Y220C SC150 (μM)” value is on record as “* (* = 0 μM ≤ SC150 < 0.1 μM)”.
For the compound `CN1CC[C@@H](Nc2cccc3c2cc(-c2noc(CNC(=O)c4cnn([C@H]5CCC[C@@H]5F)c4)n2)n3CC(F)(F)F)[C@@H](F)C1` (relative stereo) [Compound 395B], the “Y220C SC150 (μM)” value is given as “* (* = 0 μM ≤ SC150 < 0.1 μM)”.
Regarding `CNc1cc(-c2cc3c(NC4CCN(C)CC4)cccc3n2CC(F)(F)F)n[nH]1` [Compound 23B, 2-[5-(methylamino)-1H-pyrazol-3-yl]-N-(1-methylpiperidin-4-yl)-1-(2,2,2-trifluoroethyl)-1H-indol-4-amine], the “Y220C SC150 (μM)” value was “**** (**** = 1 μM ≤ SC150 < 10 μM)”.

Still in this assay, the particulars now being: concentration to increase DNA binding by […], incubated at either 27° C. or 29° C. for 60 min.
On to `FC(F)(F)Cn1c(-c2ccc(CNc3ccc(Cl)cc3)cc2)cc2c(NC3CCN(C4CCOCC4)CC3)cccc21` [Compound 32A, 2-(4-{[(4-chlorophenyl)amino]methyl}phenyl)-N-[1-(oxan-4-yl)piperidin-4-yl]-1-(2,2,2-trifluoroethyl)-1H-indol-4-amine], for which the “SC150 (μM)” value is listed as “++ (++ = 2 μM ≤ SC150 < 5 μM)”.
`CC(Nc1ccc(S(C)(=O)=O)cc1)c1ccc(-c2cc3c(NC4CCN(C)CC4)cccc3n2CC(F)(F)F)cc1` (centres unmarked) [Compound 41A, 2-(4-{1-[(4-methanesulfonylphenyl)amino]ethyl}phenyl)-N-(1-methylpiperidin-4-yl)-1-(2,2,2-trifluoroethyl)-1H-indol-4-amine]: the “SC150 (μM)” value is “++ (++ = 2 μM ≤ SC150 < 5 μM)”.
Regarding `CN1CCC(Nc2cccc3c2cc(-c2ccc(C(N)c4ccccc4)cc2)n3CC(F)(F)F)CC1` (centres unmarked) [Compound 38A, 2-{4-[amino(phenyl)methyl]phenyl}-N-(1-methylpiperidin-4-yl)-1-(2,2,2-trifluoroethyl)-1H-indol-4-amine], the “SC150 (μM)” value is “+++ (+++ = 5 μM ≤ SC150 < 10 μM)”.
